Reference: patent US20040009172A1, “Use of anti-TNFalpha antibodies and another drug” (priority 2002, published 2004)

Tested on: patients with rheumatoid arthritis (RA)
Assay: Multicenter, randomized, double-blind, placebo-controlled study of D2E7 in RA patients: efficacy (ACR response)
Format: in vivo, human
Protocol: A study was designed and conducted to investigate the safety and efficacy of D2E7 40 mg administered every other week to patients with RA whose disease was not adequately treated with their current anti-rheumatic therapies (including accepted DMARDs, NSAIDs, or steroids); and was a multicenter, randomized, double-blind, placebo-controlled study in which D2E7 was subcutaneously (sc) administered every other week for up to 24 weeks at a dosage of 40 mg to patients with rheumatoid arthritis (RA) whose disease was not adequately treated with their current anti-rheumatic therapies. Anti-rheumatic therapies permitted for use during the study included accepted disease-modifying anti-rheumatic drugs (DMARDs), non-steroidal anti-inflammatory drugs (NSAIDs), or steroids. Despite using anti-rheumatic therapies, patients must have had active disease documented at both the screening and baseline visits. Doses of DMARDs, as well as concomitant prednisone (<10 mg daily) and NSAIDs, were required to be stable for at least 28 days prior to screening. Additionally, patients using azathioprine and/or cyclosporine discontinued these therapies and underwent a 28-day washout period before screening. At the baseline visit, patients were randomized to D2E7 or placebo and this signified the start of the 24-week placebo-controlled period. Patients were examined at Weeks 2, 4, 8, 12, 16, 20 and 24 of the study.
Patients were inadequately treated with their current anti-rheumatic therapies and had active RA, defined as ≧6 swollen joints and ≧9 tender joints. Additionally, patients using glucocorticoids were allowed into the study if the dose was equivalent to ≦10 mg/day prednisone and had remained unchanged for at least 28 days.
D2E7 was supplied in 2-mL glass vials (the concentration of D2E7 in each vial was 25 mg/mL (ie, 40 mg/1.6 mL)), each containing 40 mg D2E7/1.6 mL solution for injection. D2E7 was manufactured and supplied by Ebewe Arzneimittel GmbH, in Unterach, Austria. McKesson, FIBOC Biosciences, in Rockville, Md., USA, packaged, labeled, stored and distributed D2E7 to the investigators at, each site for this study. D2E7 was self-administered as a single sc injection of 40 mg every other week for a period of 24 weeks. The concentration of study drug was 25 mg/mL. Placebo/1.6 mL (citrate-phosphate buffer solution without D2E7) was self-administered as a single sc injection every other week for a period of 24 weeks.
Patients continued to receive their pre-study dose of anti-rheumatic therapies. Anti-rheumatic therapies permitted for use during the study included DMARDs (hydroxychloroquine, leflunomide, methotrexate, parenteral gold, oral gold and sulfasalazine, or any combination of these or other DMARDs), NSAIDs and steroids. Doses of these DMARDs as well as concomitant prednisone (≦10 mg daily) and NSAIDs must have been stable for at least 28 days prior to screening.
Efficacy endpoints included: ACR20 response at Week 24; ACR50 and ACR70 at Week 24; AUC (area under the curve) of ACR20, ACR50 and ACR70 from baseline to Week 24; time to first response for ACR20, ACR50 and ACR70; numeric ACR (ACR-N); change from baseline to Week 24 in components of the ACR response criteria (tender joint count [TJC], swollen joint count [SJC], patient assessment of pain, patient and physician global assessments of disease activity, HAQ and C-reactive protein [CRP]); change from baseline to Week 24 in physical function as measured by SF-36, health utilities index (HUI), functional assessment of chronic illness therapy (FACIT) fatigue scale; Euro-QoL questionnaire; multidimensional assessment of fatigue (MAF) scale; subject summary survey; incidence and time to dose increases in background DMARD and/or steroid therapy; institution of new DMARD therapy for lack of clinical response; rheumatoid factor (RF); and morning stiffness.
Adverse events were summarized by frequency, percentage, as well as the rate per 100 patient-years. […]

[1] = Non-responder, full analysis set excluding Site #7, N = 315
[2] = Week 2, full analysis set excluding Site #7, N = 315
[3] = Week 4, full analysis set excluding Site #7, N = 315
[4] = Week 8, full analysis set excluding Site #7, N = 315
[5] = Week 12, full analysis set excluding Site #7, N = 315
[6] = Week 16, full analysis set excluding Site #7, N = 315
[7] = Week 20, full analysis set excluding Site #7, N = 315
[8] = Week 24, full analysis set excluding Site #7, N = 315
[9] = Week 24, subgroup Three or more DMARDs
[10] = Week 24, subgroup concomitant Antimalarial
[11] = Week 24, subgroup concomitant Leflunomide
[12] = Week 24, subgroup concomitant Methotrexate
[13] = Week 24, subgroup concomitant Sulfasalazine

D2E7: recombinant, neutralizing human anti-hTNFα antibody; VL region SEQ ID NO: 1, VH region SEQ ID NO: 2
ACR50 response, % of patients responding (LOCF Week 24, N = 315): (30.2) %
ACR50 response, N of patients responding (LOCF Week 24, N = 315): 95
ACR70 response, % of patients responding (LOCF Week 24, N = 315): (15.2) %
ACR70 response, N of patients responding (LOCF Week 24, N = 315): 48
ACR-N Mean ± SD (LOCF Week 24, N = 315): 21.2 ± 55.3
Time to response ACR20: % of patients, Non-responder [1]: (19.4) %
Time to response ACR20: N of patients, Non-responder [1]: 61
Time to response ACR50: % of patients, Non-responder [1]: (50.8) %
Time to response ACR50: N of patients, Non-responder [1]: 160
Time to response ACR70: % of patients, Non-responder [1]: (73.3) %
Time to response ACR70: N of patients, Non-responder [1]: 231
Time to response ACR20: % of patients responding for the first time [2]: (33.7) %
Time to response ACR20: N of patients responding for the first time [2]: 106
Time to response ACR50: % of patients responding for the first time [2]: (9.8) %
Time to response ACR50: N of patients responding for the first time [2]: 31
Time to response ACR70: % of patients responding for the first time [2]: (2.9) %
Time to response ACR70: N of patients responding for the first time [2]: 9
Time to response ACR20: % of patients responding for the first time [3]: (16.2) %
Time to response ACR20: N of patients responding for the first time [3]: 51
Time to response ACR50: % of patients responding for the first time [3]: (9.8) %
Time to response ACR50: N of patients responding for the first time [3]: 31
Time to response ACR70: % of patients responding for the first time [3]: (3.8) %
Time to response ACR70: N of patients responding for the first time [3]: 12
Time to response ACR20: % of patients responding for the first time [4]: (16.5) %
Time to response ACR20: N of patients responding for the first time [4]: 52
Time to response ACR50: % of patients responding for the first time [4]: (10.8) %
Time to response ACR50: N of patients responding for the first time [4]: 34
Time to response ACR70: % of patients responding for the first time [4]: (3.8) %
Time to response ACR70: N of patients responding for the first time [4]: 12
Time to response ACR20: % of patients responding for the first time [5]: (5.4) %
Time to response ACR20: N of patients responding for the first time [5]: 17
Time to response ACR50: % of patients responding for the first time [5]: (6.3) %
Time to response ACR50: N of patients responding for the first time [5]: 20
Time to response ACR70: % of patients responding for the first time [5]: (5.7) %
Time to response ACR70: N of patients responding for the first time [5]: 18
Time to response ACR20: % of patients responding for the first time [6]: (4.1) %
Time to response ACR20: N of patients responding for the first time [6]: 13
Time to response ACR50: % of patients responding for the first time [6]: (6.3) %
Time to response ACR50: N of patients responding for the first time [6]: 20
Time to response ACR70: % of patients responding for the first time [6]: (5.7) %
Time to response ACR70: N of patients responding for the first time [6]: 18
Time to response ACR20: % of patients responding for the first time [7]: (3.8) %
Time to response ACR20: N of patients responding for the first time [7]: 12
Time to response ACR50: % of patients responding for the first time [7]: (2.9) %
Time to response ACR50: N of patients responding for the first time [7]: 9
Time to response ACR70: % of patients responding for the first time [7]: (2.2) %
Time to response ACR70: N of patients responding for the first time [7]: 7
ACR20 response, % of patients (Week 24, 40 mg sc every other week added to current anti-rheumatic therapies, N = 315): 53.0%
ACR20 response, N of patients (Week 24, 40 mg sc every other week, N = 315): 167
ACR50 response, N of patients responding (Week 24, N = 315): 92
ACR70 response, N of patients responding (Week 24, N = 315): 47
ACR-N Mean ± SD (Week 24, N = 315): 20.3 ± 55.2
Time to response ACR20: % of patients responding for the first time [8]: (1.0) %
Time to response ACR20: N of patients responding for the first time [8]: 3
Time to response ACR50: % of patients responding for the first time [8]: (3.2) %
Time to response ACR50: N of patients responding for the first time [8]: 10
Time to response ACR70: % of patients responding for the first time [8]: (2.5) %
Time to response ACR70: N of patients responding for the first time [8]: 8
ACR20 % Response (Week 24, subgroup No DMARD): 50.0%
ACR50 % (Week 24, subgroup No DMARD): 27.8%
ACR70 % (Week 24, subgroup No DMARD): 18.5%
ACR-N Mean ± SD (Week 24, subgroup No DMARD): 12.8 ± 68.2
ACR20 % Response (Week 24, subgroup One DMARD): 55.4%
ACR50 % (Week 24, subgroup One DMARD): 31.0%
ACR70 % (Week 24, subgroup One DMARD): 16.3%
ACR-N Mean ± SD (Week 24, subgroup One DMARD): 22.8 ± 56.0
ACR20 % Response (Week 24, subgroup Other DMARDs): 52.0%
ACR50 % (Week 24, subgroup Other DMARDs): 24.0%
ACR70 % (Week 24, subgroup Other DMARDs): 16.0%
ACR-N Mean ± SD (Week 24, subgroup Other DMARDs): 25.3 ± 33.9
ACR20 % Response [9]: 45.5%
ACR50 % [9]: 18.2%
ACR70 % [9]: 9.1%
ACR-N Mean ± SD [9]: 20.1 ± 37.2
ACR20 % Response (Week 24, subgroup Two DMARDs): 50.0%
ACR50 % (Week 24, subgroup Two DMARDs): 27.3%
ACR70 % (Week 24, subgroup Two DMARDs): 9.1%
ACR-N Mean ± SD (Week 24, subgroup Two DMARDs): 19.5 ± 42.3
ACR20 % Response [10]: 50.7%
ACR50 % [10]: 29.3%
ACR70 % [10]: 12.0%
ACR-N Mean ± SD [10]: 20.0 ± 45.5
ACR20 % Response [11]: 33.3%
ACR50 % [11]: 14.3%
ACR70 % [11]: 0.0%
ACR-N Mean ± SD [11]: −0.5 ± 77.5
ACR20 % Response [12]: 56.7%
ACR50 % [12]: 30.9%
ACR70 % [12]: 15.2%
ACR-N Mean ± SD [12]: 26.5 ± 42.3
ACR20 % Response [13]: 58.6%
ACR50 % [13]: 34.5%
ACR70 % [13]: 17.2%
ACR-N Mean ± SD [13]: 21.4 ± 53.9
Subgroup analyses: ACR20, ACR50, ACR70, ACR-N and their AUC (concomitant methotrexate, antimalarial treatments, sulfasalazine, other DMARDs, or 0, 1, 2, or ≧3 DMARDs, vs placebo): greater improvement
Response compared to placebo (in combination with methotrexate, antimalarial treatments, sulfasalazine, other DMARDs, or 0, 1, 2, or ≧3 DMARDs): higher response compared to placebo
Improvement in RA (patients inadequately treated with existing DMARD therapies): significant improvement in RA
Time to response and AUC for ACR20, ACR50, ACR70; AUC for ACR-N; Euro-QoL, RF, MAF scale (vs placebo): improvement in therapeutic response over placebo
